Data published in patent US20070004758A1, “COMPOSITIONS AND TREATMENTS FOR INHIBITING KINASE AND/OR HMG-COA REDUCTASE” (priority 2004, published 2007).
pIC50: −log10 of the molar value. Where a name gives a salt, the structure may show the parent alone.

Assays:
[1] = test system: oxazolone-induced mouse ear swelling; assay: Model for inhibition of topical inflammation (oxazolone-induced mouse ear swelling); format: in vivo, BALB/c male mice; conditions: topical to right ear, ear thickness 24 hours after challenge
Experimental: Left ears were untreated. The thickness of both ears of each animal was measured with a Dyer model micrometer gauge 24 hours after oxazolone challenge, and the net increase in thickness of right ears versus left ears was calculated for each animal. Percent inhibition was calculated according to the formula: [(Iv−It)/Iv]×100, where Iv and It respectively refer to the average net increase in right ear thickness (mm) for vehicle and candidate compound treated mice.

[2] = test system: LPS-induced TNF-α release from human peripheral blood mononuclear cells; assay: Whole cell LPS-stimulated TNF-α release assay; format: cell-based; conditions: Table III; inhibition of LPS-induced TNF-α release from human PBMC by 50%
Experimental: The procedure as described in Welker et al., Int. Arch. Allergy and Immunol. 109:110-115 (1996) can be followed. Briefly, a candidate compound and/or vehicle can be preincubated with human peripheral blood mononuclear leukocytes (PBML, 5×10^5/ml) cells in AIM-V medium pH 7.4 for 2 hours. Lipopolysaccharide (LPS, 25 ng/ml) can be added to stimulate the cells, which can be incubated overnight at 37° C. TNF-α cytokine levels in the conditioned medium can then be quantitated using a sandwich ELISA kit.

| Compound | % Inh. of oxazolone-induced mouse ear swelling ([1]; dose 2 × 0.3 mg) | % Inh. of oxazolone-induced mouse ear swelling ([1]; dose 2 × 1 mg) | % Inh. of oxazolone-induced mouse ear swelling ([1]; dose 2 × 2 mg) | pIC50 [2] |
| --- | --- | --- | --- | --- |
| CC(C)c1c(C(=O)Nc2ccccc2)c(-c2ccccc2)c(-c2ccc(F)cc2)n1CC[C@@H](O)C[C@@H](O)CC(=O)O [Atorvastatin sodium] | 9% | 31% | 63% | – |
| O=C(O)C[C@H](O)C[C@H](O)/C=C/c1c(-c2ccccc2)nn(-c2ccnc(Nc3ccccc3)n2)c1-c1ccccc1 [Example 11a, (3R,5S,E)-7-(3,5-diphenyl-1-(2-(phenylamino)pyrimidin-4-yl)-1H-pyrazol-4-yl)-3,5-dihydroxyhept-6-enoic Acid Calcium Salt] | – | – | – | 4.51 |
| O=C(O)C[C@H](O)C[C@H](O)/C=C/c1cnn(-c2ccnc(Nc3ccccc3)n2)c1-c1cccc(C(F)(F)F)c1 [Example 11g, (3R,5S,E)-3,5-dihydroxy-7-(1-(2-(phenylamino)pyrimidin-4-yl)-5-(3-(trifluoromethyl)phenyl)-1H-pyrazol-4-yl)hept-6-enoic acid calcium salt] | – | – | – | 4.28 |
| CC(C)n1c(/C=C/C(O)CC(O)CC(=O)O)c(-c2ccc(F)cc2)c2ccccc21 (stereo not drawn) [Fluvastatin sodium] | 28% | – | – | – |
| O=C([O-])C[C@H](O)C[C@H](O)/C=C/c1c(C2CC2)nc2ccccc2c1-c1ccc(F)cc1.O=C([O-])C[C@H](O)C[C@H](O)/C=C/c1c(C2CC2)nc2ccccc2c1-c1ccc(F)cc1.[Ca+2] [Pitavastatin calcium] | 9% | – | 60% | – |
| CC(C)c1nc(N(C)S(C)(=O)=O)nc(-c2ccc(F)cc2)c1/C=C/[C@@H](O)C[C@@H](O)CC(=O)O [Rosuvastatin sodium] | 20% | – | – | – |
